Measurements published in patent publication US8952024B2, “Herbicidal pyrimidone derivatives” (E I du Pont de Nemours and Company, priority 2009, dated 2015).

Columns and labels:
Test in all cases: Test B pre-/postemergence plant response
Assay type in all cases: in vivo
[1] = system: yellow nutsedge (Cyperus esculentus)
Method in brief: (§1)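 Ratings reflect visual comparison with untreated controls 13 to 15 days after application, from 0 (no effect) to 100 (complete control). Application was preemergence to seeded loam/sand soil or postemergence to 1- to 4-leaf plants, with compound in a non-phytotoxic, surfactant-containing solvent.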

kochia (Kochia scoparia) = system: kochia (Kochia scoparia)
Method in brief: as §1

[2] = system: wheat (Triticum aestivum)
Method in brief: as §1

[3] = system: johnsongrass (Sorghum halepense)
Method in brief: as §1

[4] = system: goosegrass (Eleusine indica)
Method in brief: as §1

[5] = system: large crabgrass (Digitaria sanguinalis)
Method in brief: as §1

[6] = system: woolly cupgrass (Eriochloa villosa)
Method in brief: as §1

[7] = system: giant foxtail (Setaria faberii)
Method in brief: as §1

[8] = system: velvetleaf (Abutilon theophrasti)
Method in brief: as §1

[9] = system: lambsquarters (Chenopodium album)
Method in brief: as §1

[10] = system: green foxtail (Setaria viridis)
Method in brief: as §1

[11] = system: pigweed (Amaranthus retroflexus)
Method in brief: as §1

[12] = system: downy bromegrass (Bromus tectorum)
Method in brief: as §1

[13] = 250 g ai/ha, Preemergence, 0 to 100 scale
[14] = Postemergence, 31 g ai/ha, scale 0 to 100 (0 no effect, 100 complete control)
[15] = Postemergence, 62 g ai/ha, scale 0 (no effect) to 100 (complete control), 13 to 15 days
[16] = Postemergence, 125 g ai/ha, visual rating after 13 to 15 days, scale 0 (no effect) to 100 (complete control)
[17] = Postemergence, 250 g ai/ha, scale 0 to 100
[18] = Preemergence, 31 g ai/ha, scale 0 to 100 (0 no effect, 100 complete control)
[19] = Preemergence, 62 g ai/ha, scale 0 to 100 (0 no effect, 100 complete control)
[20] = Preemergence, 125 g ai/ha, 0 to 100 scale

Cc1ccccc1-n1c(-c2ccccc2)ncc(C(=O)C2=C(O)CCCC2=O)c1=O [Compound 12]
Plant response rating, Nutsedge, Yellow [1, 13]: 90 | Plant response rating, Nutsedge, Yellow [1, 14]: 15 | Plant response rating, Nutsedge, Yellow [1, 15]: 55 | Plant response rating, Nutsedge, Yellow [1, 16]: 65 | Nutsedge, Yellow plant response rating [1, 17]: 80 | Plant response rating, Nutsedge, Yellow [1, 18]: 25 | Plant response rating, Nutsedge, Yellow [1, 19]: 60 | Nutsedge, Yellow plant response rating [1, 20]: 75 | Plant response rating, Kochia (kochia (Kochia scoparia); [13]): 100 | Plant response rating, Kochia (kochia (Kochia scoparia); [14]): 20 | Plant response rating, Kochia (kochia (Kochia scoparia); [15]): 20 | Plant response rating, Kochia (kochia (Kochia scoparia); [16]): 60 | Kochia plant response rating (kochia (Kochia scoparia); [17]): 65 | Plant response rating, Kochia (kochia (Kochia scoparia); [18]): 15 | Plant response rating, Kochia (kochia (Kochia scoparia); [19]): 100 | Kochia plant response rating (kochia (Kochia scoparia); [20]): 100 | Plant response rating, Wheat [2, 13]: 0 | Plant response rating, Wheat [2, 14]: 0 | Plant response rating, Wheat [2, 15]: 0 | Plant response rating, Wheat [2, 16]: 0 | Wheat plant response rating [2, 17]: 0 | Plant response rating, Wheat [2, 18]: 0 | Plant response rating, Wheat [2, 19]: 0 | Wheat plant response rating [2, 20]: 0 | Plant response rating, Johnsongrass [3, 13]: 98 | Plant response rating, Johnsongrass [3, 14]: 55 | Plant response rating, Johnsongrass [3, 15]: 60 | Plant response rating, Johnsongrass [3, 16]: 60 | Johnsongrass plant response rating [3, 17]: 75 | Plant response rating, Johnsongrass [3, 18]: 0 | Plant response rating, Johnsongrass [3, 19]: 0 | Johnsongrass plant response rating [3, 20]: 75 | Plant response rating, Goosegrass [4, 13]: 100 | Plant response rating, Goosegrass [4, 14]: 70 | Plant response rating, Goosegrass [4, 15]: 85 | Plant response rating, Goosegrass [4, 16]: 98 | Goosegrass plant response rating [4, 17]: 100 | Plant response rating, Goosegrass [4, 18]: 85 | Goosegrass plant response rating [4, 20]: 100 | Plant response rating, Crabgrass, Large [5, 13]: 100 | Plant response rating, Crabgrass, Large [5, 14]: 65 | Plant response rating, Crabgrass, Large [5, 15]: 75 | Plant response rating, Crabgrass, Large [5, 16]: 80 | Crabgrass, Large plant response rating [5, 17]: 90 | Plant response rating, Crabgrass, Large [5, 18]: 0 | Plant response rating, Crabgrass, Large [5, 19]: 90 | Crabgrass, Large plant response rating [5, 20]: 100 | Plant response rating, Cupgrass, Woolly [6, 13]: 85 | Plant response rating, Cupgrass, Woolly [6, 14]: 55 | Plant response rating, Cupgrass, Woolly [6, 15]: 60 | Plant response rating, Cupgrass, Woolly [6, 16]: 70 | Cupgrass, Woolly plant response rating [6, 17]: 80 | Plant response rating, Cupgrass, Woolly [6, 18]: 0 | Plant response rating, Cupgrass, Woolly [6, 19]: 10 | Cupgrass, Woolly plant response rating [6, 20]: 75 | Plant response rating, Foxtail, Giant [7, 13]: 100 | Plant response rating, Foxtail, Giant [7, 14]: 75 | Plant response rating, Foxtail, Giant [7, 15]: 90 | Plant response rating, Foxtail, Giant [7, 16]: 98 | Foxtail, Giant plant response rating [7, 17]: 98 | Plant response rating, Foxtail, Giant [7, 18]: 0 | Plant response rating, Foxtail, Giant [7, 19]: 20 | Foxtail, Giant plant response rating [7, 20]: 70 | Plant response rating, Velvetleaf [8, 13]: 100 | Plant response rating, Velvetleaf [8, 14]: 80 | Plant response rating, Velvetleaf [8, 15]: 85 | Plant response rating, Velvetleaf [8, 16]: 98 | Velvetleaf plant response rating [8, 17]: 100 | Plant response rating, Velvetleaf [8, 18]: 90 | Plant response rating, Velvetleaf [8, 19]: 100 | Velvetleaf plant response rating [8, 20]: 100 | Plant response rating, Lambsquarters [9, 13]: 100 | Plant response rating, Lambsquarters [9, 14]: 80 | Plant response rating, Lambsquarters [9, 15]: 85 | Plant response rating, Lambsquarters [9, 16]: 98 | Lambsquarters plant response rating [9, 17]: 98 | Plant response rating, Lambsquarters [9, 18]: 100 | Plant response rating, Lambsquarters [9, 19]: 100 | Lambsquarters plant response rating [9, 20]: 100 | Plant response rating, Foxtail, Green [10, 13]: 80 | Plant response rating, Foxtail, Green [10, 14]: 40 | Plant response rating, Foxtail, Green [10, 15]: 60 | Plant response rating, Foxtail, Green [10, 16]: 70 | Foxtail, Green plant response rating [10, 17]: 70 | Plant response rating, Foxtail, Green [10, 18]: 0 | Plant response rating, Foxtail, Green [10, 19]: 0 | Foxtail, Green plant response rating [10, 20]: 40 | Plant response rating, Pigweed [11, 13]: 100 | Plant response rating, Pigweed [11, 14]: 95 | Plant response rating, Pigweed [11, 15]: 95 | Plant response rating, Pigweed [11, 16]: 98 | Pigweed plant response rating [11, 17]: 100 | Plant response rating, Pigweed [11, 18]: 100 | Plant response rating, Pigweed [11, 19]: 100 | Pigweed plant response rating [11, 20]: 100 | Plant response rating, Bromegrass, Downy [12, 13]: 0 | Plant response rating, Bromegrass, Downy [12, 14]: 5 | Plant response rating, Bromegrass, Downy [12, 15]: 10 | Plant response rating, Bromegrass, Downy [12, 16]: 20 | Bromegrass, Downy plant response rating [12, 17]: 20 | Plant response rating, Bromegrass, Downy [12, 18]: 0 | Plant response rating, Bromegrass, Downy [12, 19]: 0 | Bromegrass, Downy plant response rating [12, 20]: 0
